Results reported in patent US4399126A, “Modulators of the complement system” (American Cyanamid Company, priority 1982, dated 1983).
Where two headings read alike, the source gives them in different places.

Tests used:
[1] = tested on: late components of human complement (C3-C9); test: Test Code 035 (C3-C9 inhibitor), lysis of EAC 142; type: biochemical; details: serial twofold dilution assay; higher well number indicates higher activity
activated human C1 = molecular target: T1, activated human C1 (Homo sapiens, UniProt P09871); test: Test Code 026 (C1 inhibitor); type: biochemical; details: serial twofold dilution assay; higher well number indicates higher activity
T1 sequence (P09871 16-437 limits assumed): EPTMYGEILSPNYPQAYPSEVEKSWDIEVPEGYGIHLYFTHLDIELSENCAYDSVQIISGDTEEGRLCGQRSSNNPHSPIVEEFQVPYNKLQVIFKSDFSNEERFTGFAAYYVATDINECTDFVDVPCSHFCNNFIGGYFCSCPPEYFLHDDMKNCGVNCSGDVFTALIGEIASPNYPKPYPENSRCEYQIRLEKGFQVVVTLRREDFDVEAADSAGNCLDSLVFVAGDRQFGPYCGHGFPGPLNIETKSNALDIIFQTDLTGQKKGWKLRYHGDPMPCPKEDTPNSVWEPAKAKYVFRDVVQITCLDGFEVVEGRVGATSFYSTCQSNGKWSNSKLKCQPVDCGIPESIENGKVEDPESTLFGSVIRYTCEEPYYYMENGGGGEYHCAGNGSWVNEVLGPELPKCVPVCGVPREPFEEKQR
T1 sequence (P09871 438-688 limits assumed): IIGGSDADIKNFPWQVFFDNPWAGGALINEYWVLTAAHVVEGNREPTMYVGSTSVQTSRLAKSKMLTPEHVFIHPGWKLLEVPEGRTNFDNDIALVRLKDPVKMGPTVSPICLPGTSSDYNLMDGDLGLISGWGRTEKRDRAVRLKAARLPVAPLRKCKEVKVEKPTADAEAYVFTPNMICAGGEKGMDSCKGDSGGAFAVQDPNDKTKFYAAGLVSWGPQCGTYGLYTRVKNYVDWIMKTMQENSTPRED

[2] = tested on: complement activity of sera; test: Guinea Pig Intraperitoneal Test (GPIP); type: in vivo; details: Cavia porcellus, ip, 200 mg/kg i.p., capillary complement assay
Procedure: Percent inhibition is calculated by comparison with simultaneous controls.

[3] = blood 2 hours after injection, read-out: in vivo Activity Guinea Pig % Inhibition Intraperitoneal, 2 hours
[4] = blood 6 hours after injection, read-out: in vivo Activity Guinea Pig % Inhibition Intraperitoneal, 6 hours
[5] = blood 24 hours after injection, read-out: in vivo Activity Guinea Pig % Inhibition Intraperitoneal, 24 hours

O=C(CCC(=O)Nc1ccc(S[C@@H]2O[C@H](COS(=O)(=O)O)[C@@H](O[C@H]3O[C@H](COS(=O)(=O)O)[C@@H](OS(=O)(=O)O)[C@H](OS(=O)(=O)O)[C@H]3OS(=O)(=O)O)[C@H](OS(=O)(=O)O)[C@H]2OS(=O)(=O)O)cc1)Nc1ccc(S[C@@H]2O[C@H](COS(=O)(=O)O)[C@@H](O[C@H]3O[C@H](COS(=O)(=O)O)[C@@H](OS(=O)(=O)O)[C@H](OS(=O)(=O)O)[C@H]3OS(=O)(=O)O)[C@H](OS(=O)(=O)O)[C@H]2OS(=O)(=O)O)cc1 [Tetradecasodium N,N'--bis[4-[2,3,6-tri-O--sulfo-4-O--(2,3,4,6-tetra-O--sulfo-α-D-glucopyranosyl)-β -D-glucopyranosylthio]phenyl]butanediamide]
in vitro Activity C-Late 035 Wells [1]: 1.4 Wells | in vitro Activity Cl 026 Wells (activated human C1): 10.2 Wells

O=C(CCCCCCC(=O)Nc1ccc(S[C@@H]2O[C@H](COS(=O)(=O)O)[C@@H](O[C@H]3O[C@H](COS(=O)(=O)O)[C@@H](OS(=O)(=O)O)[C@H](OS(=O)(=O)O)[C@H]3OS(=O)(=O)O)[C@H](OS(=O)(=O)O)[C@H]2OS(=O)(=O)O)cc1)Nc1ccc(S[C@@H]2O[C@H](COS(=O)(=O)O)[C@@H](O[C@H]3O[C@H](COS(=O)(=O)O)[C@@H](OS(=O)(=O)O)[C@H](OS(=O)(=O)O)[C@H]3OS(=O)(=O)O)[C@H](OS(=O)(=O)O)[C@H]2OS(=O)(=O)O)cc1.[Na].[Na].[Na].[Na].[Na].[Na].[Na].[Na].[Na].[Na].[Na].[Na].[Na].[Na] [Tetradecasodium N,N'-bis[4-[2,3,6-tri-O-sulfo-4-O-(2,3,4,6-tetra-O-sulfo-α-D-glucopyranosyl)-β-D-glucopyranosylthio]phenyl]octanediamide]
in vitro Activity C-Late 035 Wells [1]: 1.5 Wells | inhibition at 200 mg/kg [2, 3]: 87% | inhibition at 200 mg/kg [2, 4]: 71% | inhibition at 200 mg/kg [2, 5]: 44% | in vitro Activity Cl 026 Wells (activated human C1): 9 Wells

O=C(CCCCCCCCC(=O)Nc1ccc(S[C@@H]2O[C@H](COS(=O)(=O)O)[C@@H](O[C@H]3O[C@H](COS(=O)(=O)O)[C@@H](OS(=O)(=O)O)[C@H](OS(=O)(=O)O)[C@H]3OS(=O)(=O)O)[C@H](OS(=O)(=O)O)[C@H]2OS(=O)(=O)O)cc1)Nc1ccc(S[C@@H]2O[C@H](COS(=O)(=O)O)[C@@H](O[C@H]3O[C@H](COS(=O)(=O)O)[C@@H](OS(=O)(=O)O)[C@H](OS(=O)(=O)O)[C@H]3OS(=O)(=O)O)[C@H](OS(=O)(=O)O)[C@H]2OS(=O)(=O)O)cc1.[Na].[Na].[Na].[Na].[Na].[Na].[Na].[Na].[Na].[Na].[Na].[Na].[Na].[Na] [tetradecasodium N,N'-bis[4-[2,3,6-tri-O-sulfo-4-O-(2,3,4,6-tetra-O-sulfo-α-D-glucopyranosyl)-β-D-glucopyranosylthio]phenyl]decanediamide]
in vitro Activity C-Late 035 Wells [1]: 0.8 Wells | inhibition at 200 mg/kg [2, 3]: 88% | inhibition at 200 mg/kg [2, 4]: 87% | inhibition at 200 mg/kg [2, 5]: 75% | in vitro Activity Cl 026 Wells (activated human C1): 5.0 Wells

O=C(Nc1ccc(S[C@@H]2O[C@H](COS(=O)(=O)O)[C@@H](O[C@H]3O[C@H](COS(=O)(=O)O)[C@@H](OS(=O)(=O)O)[C@H](OS(=O)(=O)O)[C@H]3OS(=O)(=O)O)[C@H](OS(=O)(=O)O)[C@H]2OS(=O)(=O)O)cc1)C(=O)Nc1ccc(S[C@@H]2O[C@H](COS(=O)(=O)O)[C@@H](O[C@H]3O[C@H](COS(=O)(=O)O)[C@@H](OS(=O)(=O)O)[C@H](OS(=O)(=O)O)[C@H]3OS(=O)(=O)O)[C@H](OS(=O)(=O)O)[C@H]2OS(=O)(=O)O)cc1.[Na].[Na].[Na].[Na].[Na].[Na].[Na].[Na].[Na].[Na].[Na].[Na].[Na].[Na] [tetradecasodium N,N'-bis[4-[2,3,6-tri-O-sulfo-4-O-(2,3,4,6-tetra-O-sulfo-α-D-glucopyranosyl)-β-D-glucopyranosylthio]phenyl]ethanediamide]
in vitro Activity C-Late 035 Wells [1]: 1.2 Wells | inhibition at 200 mg/kg [2, 3]: 90% | inhibition at 200 mg/kg [2, 4]: 90% | inhibition at 200 mg/kg [2, 5]: 80% | in vitro Activity Cl 026 Wells (activated human C1): 9.5 Wells

O=C(CCCCCC(=O)Nc1ccc(S[C@@H]2O[C@H](COS(=O)(=O)O)[C@@H](O[C@H]3O[C@H](COS(=O)(=O)O)[C@@H](OS(=O)(=O)O)[C@H](OS(=O)(=O)O)[C@H]3OS(=O)(=O)O)[C@H](OS(=O)(=O)O)[C@H]2OS(=O)(=O)O)cc1)Nc1ccc(S[C@@H]2O[C@H](COS(=O)(=O)O)[C@@H](O[C@H]3O[C@H](COS(=O)(=O)O)[C@@H](OS(=O)(=O)O)[C@H](OS(=O)(=O)O)[C@H]3OS(=O)(=O)O)[C@H](OS(=O)(=O)O)[C@H]2OS(=O)(=O)O)cc1.[Na].[Na].[Na].[Na].[Na].[Na].[Na].[Na].[Na].[Na].[Na].[Na].[Na].[Na] [tetradecasodium N,N'-bis[4-[2,3,6-tri-O-sulfo-4-O-(2,3,4,6-tetra-O-sulfo-α-D-glucopyranosyl)-β-D-glucopyranosylthio]phenyl]heptanediamide]
in vitro Activity C-Late 035 Wells [1]: 1.0 Wells | inhibition at 200 mg/kg [2, 3]: 87% | inhibition at 200 mg/kg [2, 4]: 87% | inhibition at 200 mg/kg [2, 5]: 50% | in vitro Activity Cl 026 Wells (activated human C1): 10.7 Wells

O=C(CCCCC(=O)Nc1ccc(S[C@@H]2O[C@H](COS(=O)(=O)O)[C@@H](O[C@H]3O[C@H](COS(=O)(=O)O)[C@@H](OS(=O)(=O)O)[C@H](OS(=O)(=O)O)[C@H]3OS(=O)(=O)O)[C@H](OS(=O)(=O)O)[C@H]2OS(=O)(=O)O)cc1)Nc1ccc(S[C@@H]2O[C@H](COS(=O)(=O)O)[C@@H](O[C@H]3O[C@H](COS(=O)(=O)O)[C@@H](OS(=O)(=O)O)[C@H](OS(=O)(=O)O)[C@H]3OS(=O)(=O)O)[C@H](OS(=O)(=O)O)[C@H]2OS(=O)(=O)O)cc1.[Na].[Na].[Na].[Na].[Na].[Na].[Na].[Na].[Na].[Na].[Na].[Na].[Na].[Na] [tetradecasodium N,N'-bis[4-[2,3,6-tri-O-sulfo-4-O-(2,3,4,6-tetra-O-sulfo-α-D-glucopyranosyl)-β-D-glucopyranosylthio]phenyl]hexanediamide]
in vitro Activity C-Late 035 Wells [1]: 1.0 Wells | inhibition at 200 mg/kg [2, 3]: 90% | inhibition at 200 mg/kg [2, 4]: 85% | inhibition at 200 mg/kg [2, 5]: 76% | in vitro Activity Cl 026 Wells (activated human C1): 10.5 Wells

O=C(CCCCCCCCCCCCC(=O)Nc1ccc(S[C@@H]2O[C@H](COS(=O)(=O)O)[C@@H](O[C@H]3O[C@H](COS(=O)(=O)O)[C@@H](OS(=O)(=O)O)[C@H](OS(=O)(=O)O)[C@H]3OS(=O)(=O)O)[C@H](OS(=O)(=O)O)[C@H]2OS(=O)(=O)O)cc1)Nc1ccc(S[C@@H]2O[C@H](COS(=O)(=O)O)[C@@H](O[C@H]3O[C@H](COS(=O)(=O)O)[C@@H](OS(=O)(=O)O)[C@H](OS(=O)(=O)O)[C@H]3OS(=O)(=O)O)[C@H](OS(=O)(=O)O)[C@H]2OS(=O)(=O)O)cc1.[Na].[Na].[Na].[Na].[Na].[Na].[Na].[Na].[Na].[Na].[Na].[Na].[Na].[Na] [tetradecasodium N,N'-bis[4-[2,3,6-tri-O-sulfo-4-O-(2,3,4,6-tetra-O-sulfo-α-D-glucopyranosyl)-β-D-glucopyranosylthio]phenyl]tetradecanediamide]
in vitro Activity C-Late 035 Wells [1]: 3.0 Wells | in vitro Activity Cl 026 Wells (activated human C1): 7 Wells

O=C(CCCC(=O)Nc1ccc(S[C@@H]2O[C@H](COS(=O)(=O)O)[C@@H](O[C@@H]3O[C@H](COS(=O)(=O)O)[C@@H](OS(=O)(=O)O)[C@H](OS(=O)(=O)O)[C@H]3OS(=O)(=O)O)[C@H](OS(=O)(=O)O)[C@H]2OS(=O)(=O)O)cc1)Nc1ccc(S[C@@H]2O[C@H](COS(=O)(=O)O)[C@@H](O[C@@H]3O[C@H](COS(=O)(=O)O)[C@@H](OS(=O)(=O)O)[C@H](OS(=O)(=O)O)[C@H]3OS(=O)(=O)O)[C@H](OS(=O)(=O)O)[C@H]2OS(=O)(=O)O)cc1.[Na].[Na].[Na].[Na].[Na].[Na].[Na].[Na].[Na].[Na].[Na].[Na].[Na].[Na] [tetradecasodium N,N'-bis[4-[2,3,6-tri-O-sulfo-4-O-(2,3,4,6-tetra-O-sulfo-β-D-glucopyranosyl)-β-D-glucopyranosylthio]phenyl]pentanediamide]
in vitro Activity C-Late 035 Wells [1]: 2.0 Wells | in vitro Activity Cl 026 Wells (activated human C1): 12 Wells
